We go through five compounds from ChEMBL document CHEMBL1140744, “Binding of serotonin and N1-benzenesulfonyltryptamine-related analogs at human 5-HT6 serotonin receptors: receptor modeling studies” (J Med Chem, 2008).

One may read the Ki as the dissociation constant of the complex between target and ligand, obtained from inhibition or displacement. Low readings indicate a stronger hold on the target, high ones a looser hold on the target.

The assay addresses 5-hydroxytryptamine receptor 6 (Homo sapiens, UniProt P50406). Description: Displacement of [3H]LSD from human 5HT6 receptor expressed in HEK293 cells. The assay is classed as cell-based.

Molecules are shown by their SMILES.

5-hydroxytryptamine receptor 6, sequence (P50406 whole entry): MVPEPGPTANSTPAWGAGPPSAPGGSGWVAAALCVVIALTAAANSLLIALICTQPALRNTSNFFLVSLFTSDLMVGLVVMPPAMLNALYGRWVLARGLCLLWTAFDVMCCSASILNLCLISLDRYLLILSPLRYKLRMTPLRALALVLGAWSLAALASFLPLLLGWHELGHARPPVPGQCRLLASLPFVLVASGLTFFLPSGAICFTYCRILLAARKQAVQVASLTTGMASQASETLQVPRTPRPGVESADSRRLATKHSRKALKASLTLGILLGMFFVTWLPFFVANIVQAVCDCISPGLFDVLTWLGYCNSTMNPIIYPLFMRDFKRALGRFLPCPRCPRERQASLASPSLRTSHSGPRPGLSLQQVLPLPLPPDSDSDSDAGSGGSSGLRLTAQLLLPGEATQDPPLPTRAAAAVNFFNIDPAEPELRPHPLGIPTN

The compound `CN(C)CCc1cn(Sc2ccccc2)c2ccccc12` returned a Ki of 90 nM.
To `CN(C)[C@@H]1CCc2c(cccc2NS(=O)(=O)c2ccccc2)C1` belongs 49 nM; to `CN(C)[C@H]1CCc2c(cccc2NS(=O)(=O)c2ccccc2)C1`, 90 nM; to `CCc1[nH]c2ccc(OC)cc2c1C[C@@H]1CCCN1C`, 220 nM.
`CCc1[nH]c2ccc(OC)cc2c1C[C@H]1CCCN1C` returned a Ki of 1.8 nM.
